Reference: EP4775567A1, “IONIZABLE CATIONIC LIPID COMPOUNDS AS WELL AS PREPARATION METHOD THEREFOR AND USE THEREOF” (Scindy Pharmaceutical (Suzhou) Co., Ltd, priority 2023, dated 2025)

Tests used:
[1] = Apparent pKa of blank lipid nanoparticles by TNS fluorescence; format: physicochemical; details: compound:DSPC:cholesterol:ALC-0159 50:10:38.5:1.5, pH 2 to 11
Description: The apparent pKa of lipid nanoparticles is correlated with the efficacy of lipid nanoparticles in delivering nucleic acids (see Jayaraman et al., Angewandte Chemie, International Edition (2012), 51(34), 8529-8533; Semple et al., Nature Biotechnology 28, 172-176 (2010)). The apparent pKa of nanoparticles prepared from different lipid compounds was determined using fluorescence based on 2-(p-toluidino)-6-naphthalenesulfonic acid (TNS). The fluorescent probe has no fluorescence in water but […] emits fluorescence when bound to lipid membranes. Blank lipid nanoparticles were prepared at a molar ratio of ionizable cationic lipid compound (each exemplary compound) : DSPC : cholesterol : 2-[(polyethylene glycol)-2000]-N,N-ditetradecylacetamide (ALC-0159) of 50:10:38.5:1.5. They were diluted in different pH buffer solutions having a pH ranging from 2 to 11. An aqueous TNS solution was added and mixed. Then, the mixtures were added to a 96-well plate (black bottom), respectively. Detection was performed with excitation wavelength at 325 nm and the emission wavelength at 435 nm, with top detection. Measurement was performed 10 times for each well, and the fluorescence intensity was recorded. A pH-fluorescence intensity curve was plotted to determine the apparent pKa.

[2] = Particle size and polydispersity index (PDI) by dynamic light scattering; format: physicochemical; details: luciferase mRNA lipid nanoparticles prepared from the compound; 25°C
Description: (§1) Luciferase mRNA was diluted in a 10-100 mM sodium citrate buffer solution at pH 4.0, with the concentration of the mRNA solution being 135 µg/ml. A mixed lipid ethanol solution was prepared at a molar ratio of ionizable cationic lipid compound (each exemplary compound) : DSPC: cholesterol : 2-[(polyethylene glycol)-2000]-N,N-ditetradecylacetamide (ALC-0159) of 50:10:38.5:1.5. The mRNA solution and the mixed lipid solution were mixed at a volume ratio of 3:1 in a nanodrug preparation device, followed by ultrafiltration to obtain luciferase mRNA lipid nanoparticles.
(§2) • 1. Determination of particle size and polydispersity index (PDI): The average particle size and PDI of the nanoparticle sample solutions in the examples were determined by dynamic light scattering using Malvern ZetaSizer Nano ZS90. The measurement angle was 90°, the refractive index of the dispersant was 1.330, and the test temperature was 25°C. • 2. Zeta potential: The Zeta potential of the nanoparticle sample solutions in the examples was determined by electrophoretic light scattering (ELS) using Malvern ZetaSizer Nano ZS90. Refractive index of the dispersant: 1.330, Test temperature: 25°C. • 3. Encapsulation Rate: The Encapsulation Rate of luciferase mRNA in lipid nanoparticles was determined using a Quant-it Ribogreen RNA quantitation kit (ThermoFisher Scientific, UK) in accordance with the manufacturer's instructions.

[3] = Zeta potential by electrophoretic light scattering; format: physicochemical; details: luciferase mRNA lipid nanoparticles prepared from the compound; 25°C
Description: as §1, §2

[4] = Encapsulation Rate of luciferase mRNA in lipid nanoparticles (Quant-it Ribogreen RNA kit); format: physicochemical; details: luciferase mRNA in lipid nanoparticles prepared from the compound
Description: as §1, §2

HEK 293T cells = assay: In vitro transfection efficiency of luciferase mRNA lipid nanoparticles (luciferase activity); format: cell-based; details: for HEK 293T Cell Luciferase Activity: 100 ng dose, 96-well plate, 24 h incubation, luciferase mRNA lipid nanoparticles
Description: as §1
HEK-293T cells were used to evaluate the in vitro transfection efficiency of lipid nanoparticle compositions prepared from each exemplary compound. HEK293T cells were routinely cultured in DMEM + 10% FBS medium to ensure the cells were in the logarithmic growth phase. One day before transfection, the cells were seeded into a 96-well culture plate at an appropriate cell density and grown overnight. At the time of transfection, the cell confluency needed to reach 70-90%. The lipid nanoparticle compositions prepared from each exemplary compound were diluted into 4 different dose concentrations with DMEM and added to the 96-well cell culture plate, resulting in final concentrations of 400 ng, 200 ng, 100 ng and 50 ng per well, respectively. luciferase plasmid transfected using Lipofectamine 2000 was used as the positive control (PC). After incubation for 24 h in a 5% CO2 incubator at 37°C, the substrate was added to the wells, and the luciferase activity was determined using a microplate reader. […] The luciferase activity of the luciferase mRNA lipid nanoparticles prepared from Compound 1005 in HEK293T cells is shown in Fig. 1.

female Balb/c mice = assay: In vivo transfection efficiency and safety of luciferase mRNA lipid nanoparticles (whole-body live imaging); details: tail vein injection, single dose 0.3 mpk, 6 h after administration
Description: as §1
6-8 week-old female Balb/c mice were used to evaluate the in vivo transfection efficiency and safety of lipid nanoparticle compositions prepared from each exemplary compound. The lipid nanoparticles prepared from each exemplary compound were administered by tail vein injection at a single dose of 0.3 mpk. At specific time points after administration (e.g., 3 h, 6 h), live imaging of the animals was performed using a PerkinElmer small animal imaging system to determine the bioluminescent signal. The whole-body live imaging of mice at 3 h/6 h after intravenous administration of luciferase mRNA lipid nanoparticles prepared from Compound 1008 is shown in Fig. 2. […] Table 3 Summary of in vitro/in vivo Activity Evaluation of Lipid Nanoparticles Prepared from Compounds

SMILES | Apparent pKa [1] | Particle Size [2] [nm] | Polydispersity Index (PDI) [2] | Zeta Potential [3] [mV] | Encapsulation Rate [4] [%] | HEK 293T Cell Luciferase Activity (HEK 293T cells) | Mouse Whole-Body Average Fluorescence Signal (female Balb/c mice) | fluorescence intensity of luciferase expressed in HEK 293T cells (HEK 293T cells; different doses (50-400 ng per well), Fig. 1)
CCCCCCCCCCCCCCCC(CC)C(=O)OCC(COC(=O)C(CC)CCCCCCCCCCCCCCC)(COC(=O)C(CC)CCCCCCCCCCCCCCC)NCCC(=O)NCCN(CCC)CCC (stereo not shown) [Compound 1012] | 6.05 | 80.07 | 0.051 | 0.811 | 87.4 | 6.61×10^5 RLU | 2.02×10^5 p/s/cm^2/sr | –
CCCCCCCCCC(CCCCCCCC)C(=O)OCC(COC(=O)C(CCCCCCCC)CCCCCCCCC)(COC(=O)C(CCCCCCCC)CCCCCCCCC)NCCC(=O)NCCN(C)CCCCO (stereo not shown) [Compound 1118] | 5.11 | 108.1 | 0.051 | -3.96 | 95.9 | 1.48×10^4 RLU | 1.77×10^8 p/s/cm^2/sr | –
CCCCCCCCCC(CCCCCCCC)C(=O)OCC(COC(=O)C(CCCCCCCC)CCCCCCCCC)(COC(=O)C(CCCCCCCC)CCCCCCCCC)NCCC(=O)NCCN(C)C (stereo not shown) [Compound 1008] | 6.14 | 73.49 | 0.019 | -6.06 | 95.1 | 1.86×10^6 RLU | 7.66×10^5 p/s/cm^2/sr | –
CCCCCCCCCCCCCCCC(CC)C(=O)OCC(COC(=O)C(CC)CCCCCCCCCCCCCCC)(COC(=O)C(CC)CCCCCCCCCCCCCCC)NC(=O)CCCCN(C)CCCCO (stereo not shown) [Compound 1113] | 5.91 | 58.00 | 0.082 | 4.57 | 100.3 | 3.43×10^4 RLU | 3.56×10^7 p/s/cm^2/sr | –
CCCCCCCCCCCCCCCC(CC)C(=O)OCC(COC(=O)C(CC)CCCCCCCCCCCCCCC)(COC(=O)C(CC)CCCCCCCCCCCCCCC)NCCC(=O)NCCN(CCCC)CCCC (stereo not shown) [Compound 1013] | 5.75 | 82.41 | 0.123 | -2.23 | 90.7 | 9.87×10^4 RLU | 1.69×10^4 p/s/cm^2/sr | –
CCCCCCCCCCCCCC(CC)C(=O)OCC(COC(=O)C(CC)CCCCCCCCCCCCC)(COC(=O)C(CC)CCCCCCCCCCCCC)NCCC(=O)NCCN(C)C (stereo not shown) [Compound 1009] | 5.23 | 67.63 | 0.126 | 2.60 | 92.7 | 6.15×10^7 RLU | 5.99×10^4 p/s/cm^2/sr | –

Now from value to compound, other results behind:

Apparent pKa [1] | Particle Size [2] [nm] | Polydispersity Index (PDI) [2] | Zeta Potential [3] [mV] | Encapsulation Rate [4] [%] | SMILES | HEK 293T Cell Luciferase Activity (HEK 293T cells) | Mouse Whole-Body Average Fluorescence Signal (female Balb/c mice) | fluorescence intensity of luciferase expressed in HEK 293T cells (HEK 293T cells; different doses (50-400 ng per well), Fig. 1)
6.30 | 60.38 | 0.193 | 2.31 | 91.8 | CCCCCCCCCCCCCCCC(CC)C(=O)OCC(COC(=O)C(CC)CCCCCCCCCCCCCCC)(COC(=O)C(CC)CCCCCCCCCCCCCCC)NCCC(=O)NCCN(CC)CC (stereo not shown) [Compound 1011] | 8.22×10^7 RLU | 1.29×10^5 p/s/cm^2/sr | –
6.10 | 55.44 | 0.076 | -0.105 | 91.7 | CCCCCCCCCCCCCCCC(CC)C(=O)OCC(COC(=O)C(CC)CCCCCCCCCCCCCCC)(COC(=O)C(CC)CCCCCCCCCCCCCCC)NCCC(=O)NCCN(C)C (stereo not shown) [Compound 1005] | 1.01×10^8 RLU | 1.21×10^6 p/s/cm^2/sr | > 10^7 RLU
5.41 | 77.94 | 0.057 | -3.71 | 90.6 | CCCCCCCCCCCCCCCC(CC)C(=O)OCC(COC(=O)C(CC)CCCCCCCCCCCCCCC)(COC(=O)C(CC)CCCCCCCCCCCCCCC)NCCC(=O)OCCN(C)C (stereo not shown) [Compound 1029] | 8.23×10^4 RLU | 3.27×10^4 p/s/cm^2/sr | –
